According to patent US20250332298A1, “PEPTIDE-COUPLED ALGINATE GELS COMPRISING RADIONUCLIDES” (BLUE WAVE THERAPEUTICS GMBH, priority 2021, published 2025):
“And” between values parts separate entries of the source, which are not always exact repeats. Equal entries are not always repeated.

Key:
[1] = Binding efficiency of thorium-227 and its decay daughters to preformed alginate microspheres (calcium cross-linked); format: physicochemical; conditions: for Bound at 1 h, Bq: 227Th4+ solution in NaCl; for Bound at 1 h, Bq / Bound at 1 h, %: 1 h incubation; for Bound at 2 h, Bq / Bound at 2 h, %: 2 h incubation; for Bound at 1 h, % / Bound at 2 h, %: % of available radioactivity
Method: In this Experiment, binding of a tetravalent radionuclide cation to alginate microspheres was studied.
Calcium crosslinked, inhomogeneous gelled alginate microspheres were made in the same manner as shown in Example 5 above. The microspheres were washed three times using 0.9% NaCl solution, resuspended in 0.8% NaCl and incubated with a solution of ^227Th^4+. Of the available amount of radioactivity, approximately 30% bound to the pre-formed alginate microspheres (Table 3).

[2] = Binding of radium-224 and decay daughters to calcium alginate microparticles and retention over 12 days; conditions: for Day 0 particles directly after labelling, radioactivity: 30 mg microparticles, 30 min room temperature, washed, HPGe; for Day 1 radioactivity associated with particles: 24 hours after labelling; for Day 1 radioactivity associated with particles / Day 12 radioactivity associated with particles: room temperature, after washing with water; for Day 12 radioactivity associated with particles: 12 days after labelling; for Day 0 % bound radioactivity relative to available radioactivity: directly after labelling
Method: Calcium alginate was produced via the conversion of sodium alginate powder suspended in isopropyl alcohol by adding an aqueous solution of calcium chloride as exemplified in US 2011/0053886 incorporated herein.
A 30 mg sample of calcium alginate microparticles, having an average size distribution (DV50) of 13 μm, was resuspended first in 200 μl water, then 150 μl radium-224 solution was added followed by an additional 150 μl of water. The sample was vortex mixed then incubated at room temperature for 30 min. An aliquot of 500 μl water was added to the particle suspension. The sample was vortex mixed then centrifuged for 1 min at 6000 rpm. The supernatant was transferred to another Eppendorf tube labelled Wash 1. The particle sample was then resuspended in 1000 μl water, vortexed, then centrifuged. The supernatant was transferred to an Eppendorf tube labelled Wash 2. The wash with 1000 μl water was repeated and the supernatant collected to tube Wash 3. Samples were then analysed for radioactivity using a high purity germanium detector.
The sample was kept at room temperature and analysed again at day 1 (24 hours after labelling) and 12 days after labelling. Radioactivity was determined after first washing the particles with water.
This solution represents the available radioactivity, and radionuclides, added to calcium alginate microparticles. Following incubation and a wash to remove unbound radioactivity, the radioactivity associated with the alginate microparticles was again measured respective to each decay daughter radionuclide. The % bound radioactivity relative to the available radioactivity was calculated.
When the particles were washed on day 1 after labelling, and radioactivity determined (HPGe detector), in addition, the amount of 224-Ra radioactivity theoretically remaining associated with the alginate microparticles was calculated using an available radioactive decay calculator (http://www.radprocalculator.com).

Row | Compound | Bound at 1 h, Bq [1] | Bound at 2 h, Bq [1] | Bound at 1 h, % [1] | Bound at 2 h, % [1] | Day 0 particles directly after labelling, radioactivity [2] | Day 1 radioactivity associated with particles [2] | Day 12 radioactivity associated with particles [2] | Day 0 % bound radioactivity relative to available radioactivity [2] | other results
1 | [211Bi] [Bismuth-211] | 10067 Bq | 11154 Bq | 90.2% | 99.9% |  |  |  |  | Bound at 1 h, % ([1]; listed as 211Bi): 100%; Bound at 1 h, % ([1]; listed as bismuth): 100%
2 | [212Bi] [Formulation 212-Bi, bismuth 212] |  |  |  |  | 7640 Bq | 7650 Bq | 910 Bq | 83.6% | 
3 | [212Pb] [Formulation 212-Pb, lead-212] |  |  |  |  | 8370 Bq | 7840 Bq | 1040 Bq |  | 
4 | [224Ra] [Formulation 224-Ra, radium-224] |  |  |  |  | 8720 Bq and 8740 Bq | 7270 Bq | 913 Bq | 94.9% | Day 1 % radioactivity remaining bound relative to theoretical radioactivity following decay ([2]; Day 1): 100%; Day 12 % radioactivity remaining bound relative to theoretical radioactivity following decay ([2]; Day 12): 100% and 101%
5 | [223Ra] [Radium-223] | 10512 Bq | 11201 Bq | 111.5% | 118.8% |  |  |  |  | Bound at 1 h, % ([1]; listed as 223Ra): 100%; Bound at 1 h, % ([1]; listed as radium): 100%
6 | [227Th] [Thorium-227] | 24679 Bq | 30647 Bq | 30.4% | 37.7% |  |  |  |  | Bound at 1 h, % ([1]; listed as 227Th): approximately 30%; Bound at 1 h, % ([1]; listed as thorium-227): approximately 30%
